Several values for one entry are separate records, joined by “and”; a condition that tells them apart may be missing. Identical values can stand only once.
Experiments:
T. gondii = test: Fluorescence microscopy of infected cells; type: cell-based, Toxoplasma gondii; conditions: 50 μM
Experimental: To visualise the impact of the target compounds on the parasites, fluorescence microscopy was performed. Compound 17 was used as a representative for the two active compounds and was incubated with infected cells at a concentration of 50 μM for 24 and 48 hours. Fluorescence microscopy images were obtained at each of the timepoints (Fig. 5).
A 24 well plate of HFF host cells grown on cover slips was infected with 100 μL of parasites per well and incubated at 37 °C for 1 h. The media in the wells was aspirated and replaced with media containing 50 μM of 17 The plate was once again incubated for 24 or 48 h at 37 °C. Once incubation was complete, the cells were washed once with PBS, before fixation with 500 μL of 4% paraformaldehyde (PFA) at room temperature for 20 minutes. Cells were washed and 500 μL of blocking buffer (2% bovine serum albumin (BSA) in mL PBST (PBS, 0.2% Triton x-100 solution) and incubated for 20 min at room temperature. The cover slips were then carefully removed from each well, mounted using Fluoromount with DAPI (Southern Biotech), and placed facing down on a microscope slide. Images were obtained using a Leica DiM8 (Leica Microsystems) microscope and processed and deconvolved using SoftWoRx and FIJI software.

[1] = Turbidimetric solubility assay
Experimental: A single phosphate buffered saline (PBS) tablet (Sigma Aldrich) was dissolved in 200 mL of distilled water (dH2O) (25 °C) to obtain a PBS solution with 0.01 M phosphate buffer, 0.14 M NaCl and 0.003 M KCl.
Stock solutions of the compounds to be tested were prepared in DMSO at a concentration of 10 mM and filtered through syringe filters. Serial dilution of the stock solutions with DMSO was then carried out in a preparatory (prep) 96-well plate giving concentrations between 0.00 and 10.0 mM (0.00, 0.25, 0.50, 1.0, 2.0, 4.0, 8.0 and 10 mM). The solutions were then further diluted into 96-well assay plates containing DMSO, PBS or HEPES buffer by pipetting 4.00 μL of solution from the prep plate to the Assay plate containing 196 μL of DMSO or buffer, giving final concentrations between 0.00 and 200 μM (0.00, 5.00, 10.0, 20.0, 40.0, 80.0, 160 and 200 μM). The assay plates were incubated at 25.0 or 37.0 °C for two hours before their UV-vis absorbance was read at 620 nm with a SPECTROstar Nano microplate reader spectrophotometer. Blank readings were used to gain corrected readings by subtracting them from obtained absorbances for each compound concentration.

O=C(NCCn1cnc2cccnc21)[c-]1cccc1.[Fe+2].c1cc[cH-]c1 [Compound 17]
Parasite plasma membrane integrity (fluorescence microscopy) (T. gondii; 24 hours, leakage of fluorescent protein): damaged plasma membranes | Daughter cell division of parasites that continued to grow (fluorescence microscopy) (T. gondii; 48 hours): abnormal daughter cell division | Solubility range ([1]; HEPES (pH 7.0), 25 °C): 20-40 µM and 7-15 µg/mL | Solubility class ([1]; HEPES (pH 7.0), 37 °C): poor (solubility <10 μg mL^−1 are considered to have poor solubility) | Solubility range ([1]; HEPES (pH 7.0), 37 °C): 0-5 µM and 0–2 µg/mL | Solubility range ([1]; PBS (pH7.4), 25 °C): 0-5 µM and 0-2 µg/mL | Solubility range ([1]; PBS (pH7.4), 37 °C): 5-10 µM and 2-4 µg/mL

Source: PMC11385693, “Synthesis of ferrocenyl benzimidazole derivatives as novel anti-Toxoplasma gondii agents” (New Journal of Chemistry, 2024)
